Test results published in patent US5045566A, “Novel imidate insecticides” (ICI Americas Inc., priority 1989, dated 1991).

Key:
Type in all cases: in vivo
[1] = tested on: Aster Leafhopper [Macrosteles fascifrens (Stal)]; assay: Aster leafhopper on dipped oat seedlings (LH), 48 hours; conditions: percent in solution, adults/nymphs
Outline: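 Three ~10 cm oat seedlings per cup were dipped 2-3 seconds in 50-50 acetone-water compound solutions, dried, and caged with ten adult/nymph leafhoppers. Mortality was counted after 48 hours at concentrations from 0.05% downward. LC50, as percent compound in solution, came from dosage-mortality curves.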

[2] = tested on: Tobacco Budworm [Heliothis virescens (Fabricius)] eggs; assay: Tobacco budworm eggs (TBW-E); conditions: percent in solution; 2-day old eggs
Outline: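 Mortality of dipped eggs served as read-out, recorded after untreated controls hatched and began feeding. Treatments used acetone solutions from 0.1% downward, with eggs incubated at 78° F; LC50 is expressed as percent of compound in the solution.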

[3] = tested on: Beet Armyworm (Spodoptera exigua); assay: Beet armyworm leaf dip (BAW), 5 days; conditions: percent in solution; second-instar larvae; five days
Procedure: (§1) The compounds in Tables 1 and 2 above were tested for insecticidal activity using the following testing procedures. LC50 values, based on the results of these tests and calculated according to dosage-mortality curves, are expressed in Table 3.
Beet Armyworm (Spodoptera exigua):
Test compounds were diluted in a 50-50 acetone-water solution. Young leaves of sugar beets (Beta vulgaris) were immersed in the test solutions for 2-3 seconds and placed on a wire screen to dry. The dried leaves were placed in petri dishes containing a moistened filter paper and infested with five second-instar beet armyworm larvae. The dishes were placed in a high humidity chamber. Mortality of the larvae was recorded five days later. Test concentrations ranged from 0.1% downward. The LC-50 values are expressed below in Table 3 under the heading "BAW" in terms of percent of the test compound in solution.

[4] = tested on: Tobacco Budworm [Heliothis virescens (Fabricius)] larvae; assay: Tobacco budworm larvae, contact (TBW-C), 5 days; conditions: percent in solution, second-instar larvae
Outline: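 Cotton cotyledons dipped 2–3 s in compound in 50-50 acetone-water, dried, then infested with 5 second-instar larvae and held 5 days at high humidity. Mortality scored; LC50 from dosage-mortality curves, expressed as percent compound in solution, concentrations from 0.1% downward.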

[5] = tested on: Maize weevil [Sitophilus zeamais (Motschulsky)]; assay: Maize weevil on dipped corn seeds (MW), 48 hours; conditions: percent in solution, adult weevils
Outline: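 LC50, given as percent of compound in dipping solution, comes from dosage-mortality curves over concentrations descending from 0.01%. Four corn seeds soaked 2-3 s in 50:50 acetone:water solution were dried and held with 10 adult weevils, about 25° C, mortality read after 48 h.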

[6] = tested on: Housefly [Musca domestica]; assay: Housefly contact mortality in dishes (HF), 48 hours; conditions: μg of test compound per 25 female flies
Outline: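 Acetone solutions (with 0.01% peanut oil) dried onto dish bottoms, then 25 female flies, 1-2 days old, caged over the residue with sugar water. Mortality scored at 48 hours; LC50 from dosage-mortality curves, in μg per 25 female flies, top level 100 μg.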

[7] = tested on: Cabbage Looper [Trichoplusia ni (Hubner)]; assay: Cabbage looper leaf dip (CL), 3-5 days; conditions: percent in solution, second-instar larvae
Outline: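 Steps: dilute compound in 50-50 acetone-water from 0.1% downward; immerse cotyledon pieces 2-3 s and dry; place in humid petri dishes with five second-instar larvae; record mortality at 3-5 days. Dosage-mortality curves yield LC50 as percent in solution.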

[8] = tested on: Black Bean Aphid [Aphis fabae (Scop.)]; assay: Black bean aphid spray test on nasturtium (BBA), 48 hours; conditions: percent of test compound in sprayed solution
Outline: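 LC50, given as percent test compound in the sprayed liquid, was calculated from dosage-mortality curves using concentrations from 0.05% downward. Sprays in 50:50 acetone-water went to runoff on ~5 cm nasturtiums carrying 25-50 aphids of mixed ages, one day after infestation. Deaths were counted 48 h later under greenhouse conditions.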

[9] = tested on: Rice water weevil [Lissorhoptrus oryzophilus (Kuschel)]; assay: Rice water weevil topical (RWW), 48 hours; conditions: μg of test compound per weevil, female adults
Procedure: as §1
Rice water weevil [Lissorhoptrus oryzophilus (Kuschel)]:
Test compounds were diluted in acetone. Droplets (1 ul) of test solutions were applied to the ventral abdomens of ten female adult weevils. The treated weevils were placed in containers with wet cotton balls and rice foliage. The containers were covered and kept at a temperature of about 25° C. Mortality was recorded after 48 hours. Test concentrations ranged from […] down to that at which 50% mortality occurred. The LC50 values are expressed below in Table 3 under the heading "RWW" in terms of μg of test compound per weevil.

| Compound | LC50 LH [1] [%] | LC50 TBW E (eggs) [2] [%] | LC50 BAW [3] [%] | LC50 TBW C (contact) [4] [%] | LC50 MW [5] [%] | LC50 HF [6] [µg] | LC50 CL [7] [%] | LC50 BBA [8] [%] | LC50 RWW [9] [µg] |
| --- | --- | --- | --- | --- | --- | --- | --- | --- | --- |
| CC(C)C(=Nc1cccc(C(F)(F)F)c1)OCc1ccc(F)c(Oc2ccc(F)cc2)c1 [Compound 268] | 0.0005 | 0.023 | 0.001 | 0.0005 | > 0.01 | 4 | 0.000025 | > 0.05 |  |
| CC(C)C(=Nc1cccc(Cl)c1)OCc1cccc(Oc2ccc(Cl)cc2)c1 [Compound 270] | 0.003 | > 0.01 | 0.005 | > 0.0015 | > 0.01 | 12 | 0.00025 | > 0.05 |  |
| CC(C)C(=Nc1cccc(I)c1)OCc1ccc(F)c(Oc2ccc(F)cc2)c1 [Compound 279] | 0.0003 | 0.016 | 0.0025 | 0.007 | > 0.01 | 4 | 0.00008 | 0.0005 |  |
| CC(C)(F)C(=Nc1ccc(F)c(Cl)c1)OCc1ccc(F)c(Oc2ccc(F)cc2)c1 [Compound 310] |  | 0.015 |  |  |  | 4.5 | 0.00006 | 0.0006 | > 2.5 |
| CC(C)C(=Nc1ccc(C(F)(F)F)cc1)OCc1ccc(F)c(Oc2ccc(F)cc2)c1 [Compound 314] |  | 0.012 |  |  |  | 21 | 0.00005 |  | 0.11 |
| CC(C)C(=Nc1ccc(F)c(Cl)c1)OCc1ccc(F)c(Oc2ccc(F)c(F)c2)c1 [Compound 346] | 0.05 | > 0.1 | > 0.1 | 0.0002 | > 0.01 | 7.2 | > 0.1 | 0.0008 |  |
| CC(C)C(=Nc1ccc(OC(F)(F)F)cc1)OCc1ccc(F)c(Oc2ccc(F)c(F)c2)c1 [Compound 347] | 0.0002 | > 0.1 | 0.00075 | 0.0001 | > 0.01 | 30 | 0.000075 | 0.0002 |  |
| CC(C)C(=Nc1ccc(F)c(F)c1F)OCc1cccc(Oc2ccc(F)cc2)c1 [Compound 348] | 0.05 | > 0.1 | > 0.1 | 0.00075 | > 0.01 | 8 | 0.0002 | 0.001 |  |
| CCOc1ccc(N=C(OCc2ccc(F)c(Oc3ccc(Cl)cc3)c2)C(C)C)cc1Cl [Compound 369] |  | > 0.1 |  |  | > 0.01 | > 100 | 0.0016 | 0.0003 | > 2.5 |
| CCOc1ccc(N=C(OCc2ccc(F)c(Oc3ccccc3)c2)C(C)C)cc1Cl [Compound 370] |  | 0.02 |  |  | > 0.01 | < 100 | 0.00034 | 0.0002 | > 2.5 |
| CC(C)C(=Nc1cccc(F)c1)OCc1ccc(F)c(Oc2ccc(Cl)cc2)c1 [Compound 375] |  | 0.04 |  |  | > 0.01 | 7.9 | > 0.1 | 0.0006 | > 2.5 |
| CC(C)C(=Nc1ccc(Cl)c(Cl)c1)OCc1ccc(F)c(Oc2ccccc2)c1 [Compound 376] |  | 0.02 |  |  | 0.0061 | 17 | 0.00037 | 0.0003 | 0.1 |
